According to patent US20210015944A1, “Targeted Doxorubicin-Gold Nanocojugates for Tumor Therapy” (The Curators of the University of Missouri, priority 2017, published 2021):
In brackets after ≈: the same amount, converted by molar mass. Read-outs that look alike come from different tables or passages of the source.

Key:
[1] = test system: PC3 human prostate cancer cells; test: In vitro cytotoxicity MTT assay, GRP expressing cells; assay type: cell-based; details: PC-3, 24 hour incubation, based on total weight of nanoconjugate, read-out: IC50, Nanoconjugate Conc.
Protocol: (§1) Cell culture: PC-3 human prostate and MDA-MB231 human breast carcinoma cells (ATCC, USA) were grown in RPMI 1640 medium (obtained from Gibco BRL, Grand Island, N.Y.) supplemented with 4.5 g/L D-glucose, 25 mM Hepes, 0.11 g/L sodium pyruvate, 1.5 g/L sodiumbicarbonate, 2 mM L-glutamine, 10% heat-inactivated fetal bovine serum (Atlanta Biologicals, USA) and 1% penicillin/streptomycin antibitiotic solution. Cells were cultured in a humidified atmosphere of 95% air and 5% CO2 at 37° C. (Thermo Scientific, USA), with the medium changed every other day. The cells were adherent in monolayers and when confluent were harvested from the cell culture flasks with trypsin—EDTA (Invitrogen) and seeded further apart.
In vitro Cytotoxicity Assay: In vitro cytotoxicity evaluation of NP1-DOX and NP2-DOX with respective controls such as NP1, NP2, free doxorubicin was performed on GRP expressing and non-expressing cancer cells, PC3 and MDA-MB-231, respectively. The cytotoxicity evaluation was performed in triplicates and the protocol was followed as described by the manufacturer. […] The plates were kept for 2 hours in dark at 25° C. to dissolve all crystals, and the intensity of developed color was measured by micro plate reader (Epoch, BioTek, USA) operating at 570 nm wavelength. […]

[2] = test system: MDA-MB-231 human breast cancer cells; test: In vitro cytotoxicity MTT assay, non-GRP expressing cells; assay type: cell-based; details: MDA-MB231 cells; for IC50: Homo sapiens, MDA-MB-231
Protocol: as §1
In vitro Cytotoxicity Assay: In vitro cytotoxicity evaluation of NP1-DOX and NP2-DOX with respective controls such as NP1, NP2, free doxorubicin was performed on GRP expressing and non-expressing cancer cells, PC3 and MDA-MB-231, respectively. The cytotoxicity evaluation was performed in triplicates and the protocol was followed as described by the manufacturer. Briefly, 1×10^5 ml^−1 cells at the exponential growth phase were placed in a flat bottom 96-well polystyrene-coated plate and were incubated for 12 hour in a CO2 incubator at 5% CO2 and 37° C. A series of concentrations ranging from 0 to 10 ug/mL (0, 0.31, 0.625, 1.25, 2.5, 5.0 and 10 μg/mL) of NP1-Dox and NP2-Dox was prepared in the medium. Each concentration was added to the plate in quadruplets. After 24 hour incubation, 10 μL per well MTT (as received from the manufacturer, Promega Corporation, USA) was added and kept for 4 hours, and the formazan crystals so formed were dissolved in 100 μL detergent/solubilizing buffer. The plates were kept for 2 hours in dark at 25° C. to dissolve all crystals, and the intensity of developed color was measured by micro plate reader (Epoch, BioTek, USA) operating at 570 nm wavelength. Wells with complete medium, nanoparticles, and MTT, but without cells, were used as blanks. Untreated cells were considered 100% viable. […]

Work on `COc1cccc2c1C(=O)c1c(O)c3c(c(O)c1C2=O)C[C@@](O)(C(=O)CO)C[C@@H]3O[C@H]1C[C@H](N)[C@H](O)[C@H](C)O1` [Doxorubicin] yielded an IC50 [1] of 9.5 µg/mL (≈ 17.5 µM), an IC50 ([2]; 24 hour incubation, MTT, based on total weight of nanoconjugate, read-out: IC50, Nanoconjugate Conc.) of over 10 µg/mL and an IC50 ([2]; in terms of doxorubicin loaded (0.53 μg/mg NP1-DOX, 0.3 μg/mg NP2-DOX), read-out: IC50, Doxorubicin Conc.) of over 10 µg/mL. For the same compound, the “IC50, Nanoconjugate Conc.” value ([2]; 24 hour incubation, MTT, based on total weight of nanoconjugate) was over 10 µg/mL.
